Key:
Assay type in all cases: biochemical
JAK2 = JAK2 (Homo sapiens, UniProt O60674); assay: Detection of enzyme activity inhibition of JAK kinases (ULight-JAK substrate, Eu-labeled antibody): JAK2; details: JAK2 1 nM, ATP 10 μM, substrate 50 nM, 1 hour reaction at room temperature; read-out: JAK2 half-maximum inhibitory concentration (IC50)
Procedure: (§1) Test Example 1: Detection of Enzyme Activity Inhibition of Small Molecule Inhibitors of JAK Kinases
(§2) Kinase reaction buffer: The kinase reaction buffer was prepared with the following components: 50 mM HEPES, pH 7.5, 1 mM EGTA, 10 mM MgCl2, 2 mM DTT, and 0.01% Tween20. 1× test buffer: A test buffer was prepared, and the 10× test buffer was diluted with deionized water (deionized water: test buffer=9:1) to obtain the 1× test buffer. 4× kinase solution: JAK kinase was diluted with a kinase reaction buffer to a final concentration of 4× (JAK1:80 nM, JAK2/JAK3/Tyk2:4 nM). 4× substrate solution: ULight™-JAK (Tyr1023) substrate was diluted with the kinase reaction buffer to 200 nM (final concentration: 50 nM). 4×ATP solution: ATP was diluted with the kinase reaction buffer to a final concentration of 4× (JAK1:160 μM, JAK2/JAK3/Tyk2: 40 μM). 4× test compound solution: The compounds to be tested were dissolved in DMSO to prepare 10 mM stock solutions, which were diluted to have the desired concentrations through 3-fold gradient dilution, 10 concentrations were set for each compound, and final concentrations of the test compounds ranged from 10 μM to 0.5 nM. 4× enzyme reaction termination solution: EDTA was dissolved in a 1× test buffer to 40 mM (final concentration of EDTA: 10 mM). 4× test antibody solution: Eu-labeled test antibodies (anti-phosphotyrosine (PT66)) were diluted with 1× test buffer to 8 nM (final concentration of the antibodies: 2 nM).
(§3) 2.5 μL of the 4× kinase solution and 2.5 μL of each of the 4× test compound solutions having different concentrations were added into a 384-well microwell plate sequentially, with 2 duplicate wells set for each concentration, and an enzyme solution blank control group and a negative control group (DMSO group) were also provided. The 384-well plate was oscillated to mix the enzyme and the compound uniformly, centrifuged at 1000 rpm for 1 minute, and incubated at room temperature for 60 minutes. 2.5 μL of the 4× substrate solution was added into the 384-well plate, and centrifuged at 1000 rpm for 1 minute. 2.5 μL of the 4×ATP solution was added into the 384-well plate, and centrifuged at 1000 rpm for 1 minute to start the enzyme reaction. JAK1 reacted at room temperature for 2 hours, and JAK2/JAK3/Tyk2 reacted at room temperature for 1 hour. The final concentration of each component in the JAK1 reaction was: JAK1:20 nM; substrate: 50 nM; and ATP: 40 μM. The final concentrations of the test compounds ranged from 10 μM to 0.5 nM. The final concentration of each component in the JAK2/JAK3/Tyk2 reaction was: JAK2: 1 nM; substrate: 50 nM; and ATP: 10 μM. The final concentrations of the test compounds ranged from 10 μM to 0.5 nM. After the enzyme reaction ended, 5 μL of the 4× enzyme reaction termination solution was added into each well of the 384-well plate, centrifuged at 1000 rpm for 1 minute, and incubated at room temperature for 5 minutes. 5 μL of the 4× test antibody solution (final concentration of the test antibodies was 2 nM) was added into each well of the 384-well plate, centrifuged at 1000 rpm for 1 minute, and incubated at room temperature for 1 hour. After incubation of the antibodies, a signal value of each well was measured with Envision plate reader.
(§4) Assuming that an inhibition rate of the enzyme solution blank control group was 100% and an inhibition rate of the negative control group (DMSO group) was 0%, an inhibition rate corresponding to each concentration was calculated. Nonlinear regression analysis was performed on the concentration logarithm values and corresponding percentage inhibition rates of the test compounds in GraphPad Prism software to obtain the half-maximum inhibitory concentrations (IC50) of the test compounds.

Tyk2 = Tyk2 (Homo sapiens, UniProt P29597); assay: Detection of enzyme activity inhibition of JAK kinases (ULight-JAK substrate, Eu-labeled antibody): Tyk2; details: ATP 10 μM, substrate 50 nM, 1 hour reaction at room temperature; read-out: Tyk2 half-maximum inhibitory concentration (IC50)
Sequence of Tyk2 (P29597 whole entry): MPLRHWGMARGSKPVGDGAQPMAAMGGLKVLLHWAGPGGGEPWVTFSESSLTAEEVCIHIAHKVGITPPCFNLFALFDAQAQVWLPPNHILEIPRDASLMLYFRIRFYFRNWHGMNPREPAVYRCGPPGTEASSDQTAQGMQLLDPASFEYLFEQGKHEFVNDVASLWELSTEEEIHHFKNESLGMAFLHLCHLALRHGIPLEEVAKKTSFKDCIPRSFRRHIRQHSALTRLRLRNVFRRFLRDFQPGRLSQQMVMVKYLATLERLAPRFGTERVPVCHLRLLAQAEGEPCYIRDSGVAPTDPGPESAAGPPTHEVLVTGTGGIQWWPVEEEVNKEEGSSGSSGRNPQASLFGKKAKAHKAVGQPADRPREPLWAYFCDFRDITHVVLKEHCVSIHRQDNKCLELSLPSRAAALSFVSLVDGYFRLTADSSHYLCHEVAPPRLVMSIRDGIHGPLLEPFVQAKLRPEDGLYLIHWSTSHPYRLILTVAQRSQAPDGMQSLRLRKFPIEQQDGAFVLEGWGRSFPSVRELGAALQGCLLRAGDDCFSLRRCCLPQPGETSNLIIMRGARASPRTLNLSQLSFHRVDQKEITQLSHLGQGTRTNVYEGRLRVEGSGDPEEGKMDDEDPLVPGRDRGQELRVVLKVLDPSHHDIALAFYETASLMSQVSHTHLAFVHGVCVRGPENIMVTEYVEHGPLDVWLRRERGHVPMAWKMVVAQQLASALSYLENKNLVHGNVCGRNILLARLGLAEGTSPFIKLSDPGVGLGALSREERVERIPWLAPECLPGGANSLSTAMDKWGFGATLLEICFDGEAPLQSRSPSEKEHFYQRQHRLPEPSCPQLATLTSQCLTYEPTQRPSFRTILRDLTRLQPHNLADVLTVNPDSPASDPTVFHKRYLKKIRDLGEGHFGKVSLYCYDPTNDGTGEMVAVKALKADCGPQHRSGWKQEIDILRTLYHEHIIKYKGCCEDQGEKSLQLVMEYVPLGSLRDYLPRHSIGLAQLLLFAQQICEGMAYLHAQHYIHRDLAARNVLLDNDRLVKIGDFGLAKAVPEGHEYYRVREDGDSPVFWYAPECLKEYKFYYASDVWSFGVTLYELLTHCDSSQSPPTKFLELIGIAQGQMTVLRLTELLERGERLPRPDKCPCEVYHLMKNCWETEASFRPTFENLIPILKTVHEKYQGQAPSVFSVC
Procedure: as §1, §2, §3, §4

JAK3 = molecular target: T1, JAK3 (Homo sapiens, UniProt P52333); assay: Detection of enzyme activity inhibition of JAK kinases (ULight-JAK substrate, Eu-labeled antibody): JAK3; details: ATP 10 μM, substrate 50 nM, 1 hour reaction at room temperature; read-out: JAK3 half-maximum inhibitory concentration (IC50)
T1 sequence (P52333 1-1124): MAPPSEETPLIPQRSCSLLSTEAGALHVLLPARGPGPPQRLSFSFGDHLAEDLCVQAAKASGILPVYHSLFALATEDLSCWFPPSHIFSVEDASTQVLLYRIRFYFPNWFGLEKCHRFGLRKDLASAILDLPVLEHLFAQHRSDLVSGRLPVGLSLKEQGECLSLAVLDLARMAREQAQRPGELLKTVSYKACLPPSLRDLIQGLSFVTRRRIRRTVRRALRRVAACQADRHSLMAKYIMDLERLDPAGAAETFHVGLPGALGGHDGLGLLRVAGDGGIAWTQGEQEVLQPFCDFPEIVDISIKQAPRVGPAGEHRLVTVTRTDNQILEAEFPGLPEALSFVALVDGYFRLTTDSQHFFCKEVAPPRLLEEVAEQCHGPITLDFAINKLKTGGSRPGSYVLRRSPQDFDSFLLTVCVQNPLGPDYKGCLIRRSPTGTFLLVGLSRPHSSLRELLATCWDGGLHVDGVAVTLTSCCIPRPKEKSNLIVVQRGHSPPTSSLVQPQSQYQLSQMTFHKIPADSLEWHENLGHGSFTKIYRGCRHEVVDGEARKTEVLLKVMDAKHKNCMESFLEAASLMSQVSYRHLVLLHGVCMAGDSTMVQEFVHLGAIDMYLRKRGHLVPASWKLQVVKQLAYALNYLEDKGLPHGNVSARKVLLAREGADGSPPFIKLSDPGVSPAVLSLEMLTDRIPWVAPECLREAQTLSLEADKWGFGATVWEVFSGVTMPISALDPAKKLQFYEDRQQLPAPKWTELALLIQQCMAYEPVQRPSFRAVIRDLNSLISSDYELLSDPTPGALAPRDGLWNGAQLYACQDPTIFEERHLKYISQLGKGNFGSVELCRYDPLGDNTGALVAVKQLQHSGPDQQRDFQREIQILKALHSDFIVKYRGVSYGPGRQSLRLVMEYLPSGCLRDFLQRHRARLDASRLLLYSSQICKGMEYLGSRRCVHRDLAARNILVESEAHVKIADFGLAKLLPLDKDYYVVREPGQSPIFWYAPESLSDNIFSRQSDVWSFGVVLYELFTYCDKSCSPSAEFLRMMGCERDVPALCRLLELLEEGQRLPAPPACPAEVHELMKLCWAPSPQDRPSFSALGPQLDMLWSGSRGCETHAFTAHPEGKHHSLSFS
Procedure: as §1, §2, §3, §4

JAK1 = JAK1 (Homo sapiens, UniProt P23458); assay: Detection of enzyme activity inhibition of JAK kinases (ULight-JAK substrate, Eu-labeled antibody): JAK1; details: JAK1 20 nM, ATP 40 μM, substrate 50 nM, 2 hours reaction at room temperature; read-out: JAK1 half-maximum inhibitory concentration (IC50)
Sequence of JAK1 (P23458 whole entry): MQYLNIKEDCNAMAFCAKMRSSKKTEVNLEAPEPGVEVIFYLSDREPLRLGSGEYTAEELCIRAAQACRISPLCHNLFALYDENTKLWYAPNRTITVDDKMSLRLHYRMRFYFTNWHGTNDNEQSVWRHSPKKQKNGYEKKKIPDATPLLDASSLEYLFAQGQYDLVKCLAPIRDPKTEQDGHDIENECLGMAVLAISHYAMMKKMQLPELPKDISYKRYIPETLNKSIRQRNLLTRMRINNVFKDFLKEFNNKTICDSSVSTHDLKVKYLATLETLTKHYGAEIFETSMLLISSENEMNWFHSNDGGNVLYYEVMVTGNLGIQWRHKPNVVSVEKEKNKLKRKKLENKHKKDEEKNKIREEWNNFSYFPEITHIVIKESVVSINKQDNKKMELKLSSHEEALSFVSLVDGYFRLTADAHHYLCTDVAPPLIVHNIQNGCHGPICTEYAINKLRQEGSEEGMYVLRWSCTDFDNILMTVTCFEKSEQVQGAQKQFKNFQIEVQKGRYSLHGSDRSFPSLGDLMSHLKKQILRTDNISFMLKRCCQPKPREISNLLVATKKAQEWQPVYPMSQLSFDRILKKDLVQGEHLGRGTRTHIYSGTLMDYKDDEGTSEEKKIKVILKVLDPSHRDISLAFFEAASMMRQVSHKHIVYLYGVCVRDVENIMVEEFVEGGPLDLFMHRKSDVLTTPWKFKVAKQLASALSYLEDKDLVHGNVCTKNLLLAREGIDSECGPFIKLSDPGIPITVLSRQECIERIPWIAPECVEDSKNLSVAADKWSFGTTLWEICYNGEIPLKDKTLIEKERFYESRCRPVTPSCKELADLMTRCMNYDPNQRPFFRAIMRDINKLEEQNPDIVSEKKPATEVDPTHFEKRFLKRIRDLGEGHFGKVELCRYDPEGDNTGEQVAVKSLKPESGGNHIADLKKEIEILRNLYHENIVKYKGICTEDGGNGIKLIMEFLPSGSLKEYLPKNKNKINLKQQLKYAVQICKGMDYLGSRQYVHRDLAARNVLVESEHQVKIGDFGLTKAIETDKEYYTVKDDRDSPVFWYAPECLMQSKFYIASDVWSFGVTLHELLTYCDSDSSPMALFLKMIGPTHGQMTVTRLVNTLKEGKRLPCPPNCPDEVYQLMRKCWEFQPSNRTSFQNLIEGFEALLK
Procedure: as §1, §2, §3, §4

Sequence of JAK2 (O60674 whole entry): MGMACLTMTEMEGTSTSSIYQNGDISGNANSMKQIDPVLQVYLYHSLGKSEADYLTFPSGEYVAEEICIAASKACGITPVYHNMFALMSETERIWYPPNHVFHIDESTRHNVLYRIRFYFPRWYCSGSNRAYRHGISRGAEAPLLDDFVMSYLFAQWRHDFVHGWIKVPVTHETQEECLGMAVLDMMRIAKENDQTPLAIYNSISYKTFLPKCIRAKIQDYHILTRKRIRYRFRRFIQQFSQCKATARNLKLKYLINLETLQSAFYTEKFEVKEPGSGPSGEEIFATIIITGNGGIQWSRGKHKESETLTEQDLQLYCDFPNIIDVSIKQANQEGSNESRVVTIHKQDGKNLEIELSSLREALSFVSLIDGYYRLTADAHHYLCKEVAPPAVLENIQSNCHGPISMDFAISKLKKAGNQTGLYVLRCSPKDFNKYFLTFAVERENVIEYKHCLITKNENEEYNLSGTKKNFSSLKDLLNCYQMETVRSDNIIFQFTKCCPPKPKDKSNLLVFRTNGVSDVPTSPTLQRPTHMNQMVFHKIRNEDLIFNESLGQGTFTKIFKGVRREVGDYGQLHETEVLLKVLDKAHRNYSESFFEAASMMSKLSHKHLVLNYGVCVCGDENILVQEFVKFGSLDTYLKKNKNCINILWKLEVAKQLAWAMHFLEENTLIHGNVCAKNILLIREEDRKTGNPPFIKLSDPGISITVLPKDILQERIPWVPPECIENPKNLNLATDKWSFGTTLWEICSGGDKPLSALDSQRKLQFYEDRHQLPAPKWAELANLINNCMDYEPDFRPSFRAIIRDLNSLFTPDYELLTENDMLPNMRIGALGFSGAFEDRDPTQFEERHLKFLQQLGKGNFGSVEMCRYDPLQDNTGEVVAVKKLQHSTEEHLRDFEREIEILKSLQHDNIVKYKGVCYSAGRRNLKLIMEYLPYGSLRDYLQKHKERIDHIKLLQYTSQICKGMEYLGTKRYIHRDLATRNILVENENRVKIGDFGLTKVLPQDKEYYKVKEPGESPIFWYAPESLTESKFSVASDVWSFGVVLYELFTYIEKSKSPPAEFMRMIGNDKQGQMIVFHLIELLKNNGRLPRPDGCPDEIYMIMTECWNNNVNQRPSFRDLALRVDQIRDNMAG

SMILES	IC50 (JAK2) [µM]	IC50 (Tyk2) [µM]	IC50 (JAK3) [µM]	IC50 (JAK1) [µM]
CCNC(=O)c1ccc(Nc2nccc(-c3ccc(NC(=O)[C@@H]4CC4(F)F)nc3)n2)cc1 [TDM-180971, (S)-4((4-(6-(2,2-difluorocyclopropane-1-formamido)pyridin-3-yl)pyrimidin-2-yl)amino)-N-ethyl benzamide]	0.007	0.005	0.219	0.006
Cc1cc(Nc2nccc(-c3ccc(NC(=O)[C@@H]4CC4(F)F)cc3)n2)cnc1C(N)=O [TDM-180974]	0.007	0.008	0.346	0.007
CNC(=O)c1ncc(Nc2nccc(-c3ccc(NC(=O)[C@@H]4CC4(F)F)nc3)n2)cc1C [TDM-180979, (S)-5((4-(6-(2,2-difluorocyclopropane-1-carboxamido)pyridin-3-yl)pyrimidin-2-yl)amino)-N,3-dimethylpyridinolineamide]	0.033	0.017	0.931	0.025
Cc1cc(Nc2nccc(-c3ccc(NC(=O)[C@@H]4CC4(F)F)nc3)n2)cnc1C(N)=O [TDM-180980, (S)-5-((4-(6-(2,2-difluorocyclopropane-1-carboxamido)pyridin-3-yl)pyrimidin-2-yl)amino)-3-methyl pyridinolineamide]	0.03	0.018	> 5	0.028
CNC(=O)c1ncc(Nc2nccc(-c3ccc(NC(=O)[C@@H]4CC4(F)F)cc3)n2)cc1C [TDM-180981]	0.008	0.008	0.183	0.008
CC(CO)c1ccc(Nc2nccc(-c3ccc(NC(=O)[C@@H]4CC4(F)F)nc3)n2)cn1 (stereo partly shown) [TDM-180987]	0.022	0.017	0.31	0.025

Compounds with a lower IC50 (JAK3), results first:

IC50 (JAK2) [µM]	IC50 (Tyk2) [µM]	IC50 (JAK3) [µM]	IC50 (JAK1) [µM]	SMILES
0.003	0.005	0.117	0.004	CCNC(=O)c1ccc(Nc2nccc(-c3ccc(NC(=O)[C@@H]4CC4(F)F)cc3)n2)cc1 [TDM-180972]
–	–	0.057	–	CCNC(=O)c1ccc(Nc2nccc(-c3ccc(NC(=O)[C@@H]4CC4(F)F)cc3)n2)cc1C [TDM-180977, (S)-4-(4-(4-(4-(2,2-difluorocyclopropane-1-carboxamido)phenyl)pyrimidin-2-yl)amino)-N-ethyl-2-methylbenzamide]
0.009	0.005	0.105	0.008	CCNC(=O)c1ccc(Nc2nccc(-c3ccc(NC(=O)[C@@H]4CC4(F)F)nc3)n2)cc1C [TDM-180984, (S)-4-((4-(6-(2,2-difluorocyclopropane-1-carboxamido)pyridin-3-yl)pyrimidin-2-yl)amino)-N-ethyl-2-methylbenzamide]
0.013	0.014	0.177	0.011	CC(CO)c1ccc(Nc2nccc(-c3ccc(NC(=O)[C@@H]4CC4(F)F)cc3)n2)cn1 (stereo partly shown) [TDM-180989]
